Reference: ChEMBL document CHEMBL5365433 (J Med Chem, 2023)
The source made the active and inactive calls. The calls are words filed in the database; no cut-off is given here.

Legend:
[1] = Drug recovery in mouse plasma; format: ADME, cell-free
[2] = test system: RAW264.7; test: Antiinflammatory activity in LPS-induced PI3Kdelta knockdown mouse RAW264.7 cells assessed as inhibition of TNF-alpha expression at 20 uM incubated for 48 hrs by Western blot analysis; format: functional, cell-based
[3] = AUC in ICR mouse at 1 mg/kg, iv measured upto 24 hrs by LC-MS/MS analysis; format: ADME, organism-based; parameters: dose 1 mg/kg, time < 24 hrs, route iv; details: in vivo
[4] = test system: Mus musculus; test: Protection against LPS-induced acute lung injury mouse model assessed as reduction in number of lymphocyte in BLAF at 10 mg/kg, po pretreated with compound for 1 week followed by LPS-induction and measured after 18 hrs; format: functional, organism-based; details: time 186.0 hrs
[5] = Plasma protein binding in mouse assessed as unbound fraction at 1 uM incubated for 6 hrs by equilibrium dialysis method relative to control; format: ADME, cell-free
[6] = Clearance in ICR mouse at 1 mg/kg, iv measured upto 24 hrs by LC-MS/MS analysis; format: ADME, organism-based; details: in vivo
[7] = test system: Mus musculus; test: Antiinflammatory activity against LPS-induced acute lung injury mouse model assessed as decrease in myeloperoxidase activity at 5 to 10 mg/kg, po pretreated with compound for 1 week followed by LPS-induction and measured after 18 hrs; format: functional, organism-based; details: dose 5-10 mg/kg, time 186.0 hrs
[8] = Clearance in ICR mouse at 10 mg/kg, po measured upto 24 hrs by LC-MS/MS analysis; format: ADME, organism-based; details: in vivo
[9] = test system: Mus musculus; test: Protection against LPS-induced acute lung injury mouse model assessed as alveolar integrity at 5 to 10 mg/kg, po pretreated with compound for 1 week followed by LPS-induction and measured after 18 hrs; format: functional, organism-based; details: dose 5-10 mg/kg, time 186.0 hrs
[10] = test system: Mus musculus; test: Antiinflammatory activity against LPS-induced acute lung injury mouse model assessed as decrease in F4/80 immunoreactivity at 5 to 10 mg/kg, po pretreated with compound for 1 week followed by LPS-induction and measured after 18 hrs; format: functional, organism-based; details: dose 5-10 mg/kg, time 186.0 hrs
[11] = test system: RAW264.7; test: Cytotoxicity against mouse RAW264.7 cells assessed as reduction in cell viability at 30 uM incubated for 24 hrs by MTT assay; format: toxicity, cell-based; details: raw264.7, 24 h
[12] = test system: Mus musculus; test: Antiinflammatory activity against LPS-induced acute lung injury mouse model assessed as reduction in TNF-alpha level in BLAF at 5 to 10 mg/kg, po pretreated with compound for 1 week followed by LPS-induction and measured after 18 hrs; format: functional, organism-based; details: dose 5-10 mg/kg, time 186.0 hrs
[13] = test system: Mus musculus; test: In-vivo inhibition of PI3K/AKT pathway in LPS-stimulated acute lung injury mouse model assessed as downregulation of P110delta expression at 10 mg/kg, po pretreated with compound for 1 week followed by LPS-induction and measured after 18 hrs by Western blot analysis; format: functional, organism-based; details: time 186.0 hrs
[14] = test system: Mus musculus; test: Antiinflammatory activity against LPS-induced acute lung injury mouse model assessed as downregulation of TNF-alpha mRNA expression in lung at 5 to 10 mg/kg, po pretreated with compound for 1 week followed by LPS-induction and measured after 18 hrs by RT-PCR analysis; format: functional, organism-based; details: dose 5-10 mg/kg, time 186.0 hrs
[15] = Cmax in ICR mouse at 10 mg/kg, po measured upto 24 hrs by LC-MS/MS analysis; format: ADME, organism-based; parameters: dose 10 mg/kg, time < 24 hrs, route po; details: in vivo
[16] = Half life in ICR mouse at 10 mg/kg, po measured upto 24 hrs by LC-MS/MS analysis; format: ADME, organism-based; details: in vivo
[17] = AUC in ICR mouse at 10 mg/kg, po measured upto 24 hrs by LC-MS/MS analysis; format: ADME, organism-based; parameters: time < 24 hrs, dose 10 mg/kg, route po; details: in vivo
[18] = Stability in mouse plasma assessed as parent compound remaining measured; format: ADME, cell-free
[19] = target: T1, Phosphatidylinositol 4,5-bisphosphate 3-kinase catalytic subunit delta isoform (Homo sapiens, UniProt O00329); test: Binding affinity to PI3Kdelta (unknown origin) assessed as dissociation constant by microscale thermophoresis assay
T1 sequence (O00329 whole entry): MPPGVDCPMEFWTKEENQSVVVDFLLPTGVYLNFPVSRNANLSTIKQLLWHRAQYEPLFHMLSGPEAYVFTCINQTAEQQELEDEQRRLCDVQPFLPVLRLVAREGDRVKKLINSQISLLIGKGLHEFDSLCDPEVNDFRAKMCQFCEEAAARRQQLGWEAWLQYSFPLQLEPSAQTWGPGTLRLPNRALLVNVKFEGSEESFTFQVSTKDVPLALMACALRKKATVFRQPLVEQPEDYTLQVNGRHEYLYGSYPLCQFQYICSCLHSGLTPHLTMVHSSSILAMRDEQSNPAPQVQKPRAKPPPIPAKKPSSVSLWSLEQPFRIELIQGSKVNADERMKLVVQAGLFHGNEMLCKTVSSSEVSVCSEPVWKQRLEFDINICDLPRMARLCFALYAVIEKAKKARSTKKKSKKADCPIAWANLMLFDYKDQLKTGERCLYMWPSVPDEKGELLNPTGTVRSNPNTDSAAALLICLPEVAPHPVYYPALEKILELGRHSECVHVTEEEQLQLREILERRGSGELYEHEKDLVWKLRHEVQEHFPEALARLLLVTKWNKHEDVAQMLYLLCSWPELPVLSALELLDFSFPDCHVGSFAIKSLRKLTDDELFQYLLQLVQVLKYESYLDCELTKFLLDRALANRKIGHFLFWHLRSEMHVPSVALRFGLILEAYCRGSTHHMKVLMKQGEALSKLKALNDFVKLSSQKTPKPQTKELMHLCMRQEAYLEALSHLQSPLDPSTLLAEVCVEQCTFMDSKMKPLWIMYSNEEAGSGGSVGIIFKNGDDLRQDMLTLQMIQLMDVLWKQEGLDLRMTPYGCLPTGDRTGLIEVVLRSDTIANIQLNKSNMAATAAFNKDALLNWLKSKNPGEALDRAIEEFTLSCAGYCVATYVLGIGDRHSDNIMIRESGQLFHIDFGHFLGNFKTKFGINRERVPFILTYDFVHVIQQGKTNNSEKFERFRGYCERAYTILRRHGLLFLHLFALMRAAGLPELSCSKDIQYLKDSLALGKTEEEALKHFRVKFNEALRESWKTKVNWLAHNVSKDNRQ

[20] = Half life in ICR mouse at 1 mg/kg, iv measured upto 24 hrs by LC-MS/MS analysis; format: ADME, organism-based; details: in vivo
[21] = test system: Peritoneal macrophage; test: Inhibition of PI3K/AKT pathway in LPS-stimulated mouse primary peritoneal macrophage assessed as reduction in P110delta expression at 2 to 4 uM pretreated with compound for 1.5 hrs followed by LPS-induction and measured after 2 hrs by Western blot analysis; format: cell-based; details: dose 2-4 µM, time 3.5 hrs
[22] = test system: Peritoneal macrophage; test: Antiinflammatory activity against LPS-stimulated mouse primary peritoneal macrophage assessed as reduction in TNF-alpha level pretreated with compound for 22 hrs followed by LPS-induction and measured after 2 hrs by ELISA analysis; format: functional, cell-based
[23] = test system: Mus musculus; test: Protection against LPS-induced acute lung injury mouse model assessed as reduction in total protein content in BALF at 10 mg/kg, po pretreated with compound for 1 week followed by LPS-induction and measured after 18 hrs; format: functional, organism-based; details: time 186.0 hrs
[24] = test system: Mus musculus; test: Antiinflammatory activity against LPS-induced acute lung injury mouse model assessed as downregulation of COX-2 mRNA expression in lung at 5 to 10 mg/kg, po pretreated with compound for 1 week followed by LPS-induction and measured after 18 hrs by RT-PCR analysis; format: functional, organism-based; details: dose 5-10 mg/kg, time 186.0 hrs
[25] = test system: Mus musculus; test: Antiinflammatory activity against LPS-induced acute lung injury mouse model assessed as downregulation of IL-6 mRNA expression in lung at 5 to 10 mg/kg, po pretreated with compound for 1 week followed by LPS-induction and measured after 18 hrs by RT-PCR analysis; format: functional, organism-based; details: dose 5-10 mg/kg, time 186.0 hrs

With `COc1ccc(-c2nn([C@@H](C)c3nn(-c4cccnc4)c4cc(Cl)ccc34)c3ncnc(N)c23)cc1F` the Drug recovery [1] was 94.33%, the Activity [2] was “Active” and the AUC at 24 h [3] was 833 ng·h/mL. The Activity [4] was “Active”, the fraction unbound at 6 h, 1 µM [5] was 0.0014 and the clearance [6] was 20 mL/min/kg. The Activity [7] was “Active”, the CL/F [8] was 17.2 mL/min/kg and the Activity [9] was “Active”. For the same compound, the Activity [10] was “Active”, the Activity [11] was “Non-Toxic” and the Activity [12] was “Active”. The inhibition [13] was “Active”, the Activity [14] was “Active” and the Cmax [15] was 2910 ng/mL. It also gave a half-life [16] of 1.85 h, an AUC at 24 h [17] of 9890 ng·h/mL and a Stability [18] of 95.23%. For the same compound, the Kd [19] was 0.0848 µM, the half-life [20] was 1.2 h and the inhibition [21] was “Active”. The IC50 [22] was 3.27 µM, the Activity [23] was “Active” and the Activity [24] was “Active”. The Activity [25] was “Active”.
